Reference: publication PMC5430738, “Psiguajadials A–K: Unusual Psidium Meroterpenoids as Phosphodiesterase-4 Inhibitors from the Leaves of Psidium guajava” (Scientific Reports, 2017)

Target: T1, PDE4D2 (Homo sapiens, UniProt Q08499)
T1 construct: human PDE4D2 (catalytic domain, residues 86 –413); made in house; host or cells: E. coli BL21 (Codonplus)
Assay: PDE4D2 enzymatic inhibition assay (3H-cAMP substrate)
Assay type: biochemical
Details: human PDE4D2 catalytic domain, 25 °C, 15 min, read-out: IC50 against PDE4D2
Text: The protocols for expression, purification, and enzymatic assays of PDE4D2 were similar to those we described previously. More details about the experimental procedures are provided in Supplementary S3.
S3. Experimental section Extraction and isolation and PDE4D assay
S3.1. Extraction and isolation […]
S3.2. Expression and purification of PDE4D2 prot ein
subcloned into the expression vector pET15b. All these resultant plasmids were transformed into E.
coli strain BL21 (Codonplus) for over expression. The E. coli cells carrying these plasmids were
grown in LB medium at 37 /g113C to OD600 = 0.7, and then 0.1 mM isopropyl
/g69-D-thiogalactop yranoside was added for further growth at 16 /g113C for 20–40 h. The recombinant
protein was purified by Ni-NTA column (Qiagen).
The enz ymatic activities of PDE4D cat al ytic domain and the inhibition of PDE4D by extracted
reactions were occured in mixture containing 50 mM Tris/HCl (pH 7.5), 10 mM MgCl2, 0.5 mM
DTT at room temperature (25 /g113C) for 15 min. The reactions were terminated by addition of 0.2 M
Zn S O 4 and Ba(OH)2. The reaction product 3H-AMP was precipitated out, while unreacted
3H-cAMP remained in the supernatant. The mechanism was illustrated as shown below (Scheme
S3.2). Radioactivity in the supernatant was measured in 2.5 mL Ultima Gold liquid scintillation
repeated at least three times. The IC 50 values were calculated by nonlinear regression. As a […]

T1 sequence (Q08499 388-715): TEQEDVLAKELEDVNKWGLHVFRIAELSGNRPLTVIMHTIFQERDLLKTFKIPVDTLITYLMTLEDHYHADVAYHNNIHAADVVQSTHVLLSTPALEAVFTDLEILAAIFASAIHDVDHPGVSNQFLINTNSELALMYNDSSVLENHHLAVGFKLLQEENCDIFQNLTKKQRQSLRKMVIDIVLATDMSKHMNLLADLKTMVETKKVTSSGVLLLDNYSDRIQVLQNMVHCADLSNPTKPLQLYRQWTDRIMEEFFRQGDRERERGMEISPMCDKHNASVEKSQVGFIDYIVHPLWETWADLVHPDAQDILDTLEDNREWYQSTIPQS

Row | IC50 [µM] | Structure (SMILES)
1 | > 50 | CC1=CCC(C)(C)C=CCC2(C)Oc3c(C=O)c(O)c(C=O)c(O)c3C(c3ccccc3)C2CC1 (single isomer, unassigned; (+)) [Compound 15, (+)-guajadial B]
2 | > 50 | CC1=CCC(C)(C)C=CCC2(C)Oc3c(C=O)c(O)c(C=O)c(O)c3C(c3ccccc3)C2CC1 (single isomer, unassigned; (-)) [Compound 14, (−)-guajadial B]
3 | 3.11 ± 0.1 | CC(C)C1CCC(C)C23CCC4(CC(c5ccccc5)c5c(O)c(C=O)c(O)c(C=O)c5O4)C2C13 (stereo not shown) [Compound 1, Psiguajadial A]
4 | 5.03 ± 0.33 | CC(C)C1CCC(C)C23CC4C(c5ccccc5)c5c(O)c(C=O)c(O)c(C=O)c5OC4(C)C2C13 (stereo not shown) [Compound 2, Psiguajadial B]
5 | 4.5 ± 0.28 | CC1=C2C3CC(C)(C(c4ccccc4)c4c(O)c(C=O)c(O)c(C=O)c4O3)C2C2C(CC1)C2(C)C (stereo not shown) [Compound 3, Psiguajadial C]
6 | 4.14 ± 0.26 | C=C1CCC2Cc3c(O)c(C=O)c(O)c(C(=O)c4ccccc4)c3OC2(C)CCC2C1CC2(C)C (stereo not shown) [Compound 4, Psiguajadial D]
7 | 3.25 ± 0.2 | CC1=CCCC2(C)C(c3ccccc3)c3c(O)c(C=O)c(O)c(C=O)c3OC2C2C(CC1)C2(C)C (stereo not shown) [Compound 5, Psiguajadial E]
8 | 2.63 ± 0.13 | CC1(C)CC2C1CCC13CC2(C)CCC1C(c1ccccc1)c1c(O)c(C=O)c(O)c(C=O)c1O3 (stereo not shown) [Compound 6, Psiguajadial F]
9 | 1.34 ± 0.33 | C=C1CCC2C(c3ccccc3)c3c(O)c(C=O)c(O)c(C=O)c3OC2(C)CCC2C1CC2(C)C (stereo not shown) [Compound 7, Psiguajadial G]
10 | 1.81 ± 0.09 | CC(C)C1CCC(C)C2CCC3(C=C12)CC(c1ccccc1)c1c(O)c(C=O)c(O)c(C=O)c1O3 (stereo not shown) [Compound 8, Psiguajadial H]
11 | 2.51 ± 0.17 | CC(C)C1CCC(C)C2CCC3(C=C12)CC(c1ccccc1)c1c(O)c(C=O)c(O)c(C=O)c1O3 (stereo not shown) [Compound 9, Psiguajadial I]
12 | 2.53 ± 0.33 | CC(C)C1CCC(C)C2CC3C(c4ccccc4)c4c(O)c(C=O)c(O)c(C=O)c4OC3(C)C=C12 (stereo not shown) [Compound 10, Psiguajadial J]
13 | 3.68 ± 0.27 | CC(C)C12CCC3(CC(c4ccccc4)c4c(O)c(C=O)c(O)c(C=O)c4O3)C1C2 (stereo not shown) [Compound 11, Psiguajadial K]
14 | 4.33 ± 0.21 | CC1=CCCC2(C)Oc3c(C=O)c(O)c(C=O)c(O)c3C(c3ccccc3)C2C2C(CC1)C2(C)C (stereo not shown) [Compound 12, Guajavadial C]
15 | 3.42 ± 0.21 | CC1=CCCC2(C)C(c3ccccc3)c3c(O)c(C=O)c(O)c(C=O)c3OC2C2C(CC1)C2(C)C (stereo not shown) [Compound 13, psiguadial D]
16 | 7.26 ± 0.41 | CC1CCC2C(C3C4(C)CCC13Oc1c(C=O)c(O)c(C=O)c(O)c1C4c1ccccc1)C2(C)C (stereo not shown) [Compound 16, psiguadial A]
17 | 5.61 ± 0.51 | C=C1CCC2Cc3c(O)c(C(=O)c4ccccc4)c(O)c(C=O)c3OC2(C)CCC2C1CC2(C)C (stereo not shown) [Compound 17, guapsidial A]
18 | 1.6 ± 0.09 | C=C1CCC2C(c3ccccc3)c3c(O)c(C=O)c(O)c(C=O)c3OC2(C)CCC2C1CC2(C)C (stereo not shown) [Compound 18, psidial A]
19 | 1.62 ± 0.08 | C=C1CCC2C(c3ccccc3)c3c(O)c(C=O)c(O)c(C=O)c3OC2(C)CCC2C1CC2(C)C (stereo not shown) [Compound 19, guajadial]
20 | 1.37 ± 0.07 | C=C1CCC2C(c3ccccc3)c3c(O)c(C=O)c(O)c(C=O)c3OC2(C)CCC2C1CC2(C)C (stereo not shown) [Compound 20, psiguajadial L]
21 | 2.28 ± 0.11 | CC(C)C1CCC(C)C2CCC3(C=C12)CC(c1ccccc1)c1c(O)c(C=O)c(O)c(C=O)c1O3 (stereo not shown) [Compound 21, Guajadial C]
22 | 1.93 ± 0.11 | CC(C)C1CCC(C)C2CCC3(C=C12)CC(c1ccccc1)c1c(O)c(C=O)c(O)c(C=O)c1O3 (stereo not shown) [Compound 22, Guajadial D]
23 | 2.73 ± 0.15 | CC(C)C1CCC(C)C2CC3C(c4ccccc4)c4c(O)c(C=O)c(O)c(C=O)c4OC3(C)C=C12 (stereo not shown) [Compound 23, Guajadial E]
24 | 2.67 ± 0.17 | CC(C)C1CCC(C)C2CC3C(c4ccccc4)c4c(O)c(C=O)c(O)c(C=O)c4OC3(C)C=C12 (stereo not shown) [Compound 24, Guajadial F]
25 | 2.01 ± 0.07 | CC(C)C12CC3C(c4ccccc4)c4c(O)c(C=O)c(O)c(C=O)c4OC3(C)C1C2 (stereo not shown) [Compound 25, guajavadial A]
26 | 2.7 ± 0.15 | CC(C)C12CCC3(CC(c4ccccc4)c4c(O)c(C=O)c(O)c(C=O)c4O3)C1C2 (stereo not shown) [Compound 26, guadial A]
27 | > 50 | CC1(C)C2CC3C(c4ccccc4)c4c(O)c(C=O)c(O)c(C=O)c4OC3(C)C1C2 (stereo not shown) [Compound 27, guadial B]
28 | 17.1 ± 0.96 | CC1(C)C2CCC3(CC(c4ccccc4)c4c(O)c(C=O)c(O)c(C=O)c4O3)C1C2 (stereo not shown) [Compound 28, guadial C]
